Active and inactive are the calls of the source.
Tests used:
[1] = target: Ras and Rab interactor 1/Tyrosine-protein kinase ABL1 (Homo sapiens, UniProt P00519+Q13671); assay type: functional;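 also: biochemical TR-FRET dose-response test measuring inhibition of binding between Rin1 and Abl proteins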
[2] = target: Dual specificity tyrosine-phosphorylation-regulated kinase 1A (Rattus norvegicus, UniProt Q63470); assay type: biochemical, Homo sapiens
[3] = target: T1, Rac GTPase-activating protein 1 (Homo sapiens, UniProt Q9H0H5); experiment: MgcRacGAP GTPase-activating activity inhibitors, confirmation, biochemical, ADP Hunter fluorescence, primary and confirmatory (AID 624330); assay type: functional
T1 sequence (Q9H0H5 whole entry): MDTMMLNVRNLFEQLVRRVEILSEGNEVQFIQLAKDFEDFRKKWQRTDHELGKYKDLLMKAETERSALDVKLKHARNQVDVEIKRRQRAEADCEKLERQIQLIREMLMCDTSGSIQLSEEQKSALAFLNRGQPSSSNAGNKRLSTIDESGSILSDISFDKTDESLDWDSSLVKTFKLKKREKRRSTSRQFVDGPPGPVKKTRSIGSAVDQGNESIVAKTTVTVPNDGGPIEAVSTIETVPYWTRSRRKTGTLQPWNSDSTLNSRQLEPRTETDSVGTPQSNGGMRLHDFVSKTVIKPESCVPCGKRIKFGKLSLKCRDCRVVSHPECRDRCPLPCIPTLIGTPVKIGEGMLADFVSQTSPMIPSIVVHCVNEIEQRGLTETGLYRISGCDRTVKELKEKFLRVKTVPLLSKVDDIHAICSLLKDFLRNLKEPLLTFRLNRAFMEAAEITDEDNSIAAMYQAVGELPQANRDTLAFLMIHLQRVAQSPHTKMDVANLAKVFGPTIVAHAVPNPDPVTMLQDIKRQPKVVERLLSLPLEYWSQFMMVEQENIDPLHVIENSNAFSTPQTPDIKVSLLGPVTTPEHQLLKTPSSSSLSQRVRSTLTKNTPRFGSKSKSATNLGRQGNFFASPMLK

[4] = target: Protein disulfide-isomerase (Homo sapiens, UniProt P07237); experiment: PDI inhibitors, insulin aggregation turbidity, dose response, biochemical, absorbance, cherry-picked samples (AID 602350); assay type: functional
[5] = target: Proto-oncogene tyrosine-protein kinase receptor Ret (Homo sapiens, UniProt P07949); assay type: functional;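 also: measured within a kinome-wide profiling panel, RET as the panel member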
Chain of Proto-oncogene tyrosine-protein kinase receptor Ret (P07949 whole entry): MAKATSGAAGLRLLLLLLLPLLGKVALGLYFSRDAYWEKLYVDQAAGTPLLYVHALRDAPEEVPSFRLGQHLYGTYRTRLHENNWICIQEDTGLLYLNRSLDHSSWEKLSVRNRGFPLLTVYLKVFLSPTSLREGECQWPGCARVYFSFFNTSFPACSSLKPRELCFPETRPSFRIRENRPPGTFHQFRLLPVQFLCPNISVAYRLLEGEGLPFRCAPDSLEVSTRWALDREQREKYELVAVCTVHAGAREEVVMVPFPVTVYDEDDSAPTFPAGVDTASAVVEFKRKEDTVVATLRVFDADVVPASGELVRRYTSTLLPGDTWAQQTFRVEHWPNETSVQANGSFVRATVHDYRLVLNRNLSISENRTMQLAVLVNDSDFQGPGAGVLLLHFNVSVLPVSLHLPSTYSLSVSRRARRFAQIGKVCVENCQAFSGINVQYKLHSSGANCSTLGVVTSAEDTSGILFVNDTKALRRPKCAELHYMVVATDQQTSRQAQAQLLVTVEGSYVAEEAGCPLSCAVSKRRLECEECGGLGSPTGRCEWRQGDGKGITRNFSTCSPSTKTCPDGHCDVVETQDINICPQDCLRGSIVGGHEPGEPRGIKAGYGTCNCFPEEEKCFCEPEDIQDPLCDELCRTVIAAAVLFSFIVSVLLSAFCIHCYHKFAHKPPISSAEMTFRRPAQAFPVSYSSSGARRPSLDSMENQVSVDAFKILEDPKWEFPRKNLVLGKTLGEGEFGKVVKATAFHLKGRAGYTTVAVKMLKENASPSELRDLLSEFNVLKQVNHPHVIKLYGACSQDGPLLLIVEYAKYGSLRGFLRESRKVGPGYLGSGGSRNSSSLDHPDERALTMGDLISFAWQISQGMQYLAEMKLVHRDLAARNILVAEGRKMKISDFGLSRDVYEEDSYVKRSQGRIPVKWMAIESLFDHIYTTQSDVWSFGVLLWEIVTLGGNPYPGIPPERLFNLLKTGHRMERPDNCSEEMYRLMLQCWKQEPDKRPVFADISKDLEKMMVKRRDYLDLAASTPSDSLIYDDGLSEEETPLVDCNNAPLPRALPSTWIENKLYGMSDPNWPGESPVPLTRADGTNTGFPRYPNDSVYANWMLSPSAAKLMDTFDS

[6] = target: Tyrosine-protein kinase JAK2 (Homo sapiens, UniProt O60674); assay type: functional;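 also: JAK2 tested as one member of a kinase panel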
[7] = target: Mitogen-activated protein kinase kinase kinase kinase 2 (Homo sapiens, UniProt Q12851); assay type: functional;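 also: measured as one member of a kinome-wide kinase panel, with MAP4K2 as the panel entry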
Chain of Mitogen-activated protein kinase kinase kinase kinase 2 (Q12851 whole entry): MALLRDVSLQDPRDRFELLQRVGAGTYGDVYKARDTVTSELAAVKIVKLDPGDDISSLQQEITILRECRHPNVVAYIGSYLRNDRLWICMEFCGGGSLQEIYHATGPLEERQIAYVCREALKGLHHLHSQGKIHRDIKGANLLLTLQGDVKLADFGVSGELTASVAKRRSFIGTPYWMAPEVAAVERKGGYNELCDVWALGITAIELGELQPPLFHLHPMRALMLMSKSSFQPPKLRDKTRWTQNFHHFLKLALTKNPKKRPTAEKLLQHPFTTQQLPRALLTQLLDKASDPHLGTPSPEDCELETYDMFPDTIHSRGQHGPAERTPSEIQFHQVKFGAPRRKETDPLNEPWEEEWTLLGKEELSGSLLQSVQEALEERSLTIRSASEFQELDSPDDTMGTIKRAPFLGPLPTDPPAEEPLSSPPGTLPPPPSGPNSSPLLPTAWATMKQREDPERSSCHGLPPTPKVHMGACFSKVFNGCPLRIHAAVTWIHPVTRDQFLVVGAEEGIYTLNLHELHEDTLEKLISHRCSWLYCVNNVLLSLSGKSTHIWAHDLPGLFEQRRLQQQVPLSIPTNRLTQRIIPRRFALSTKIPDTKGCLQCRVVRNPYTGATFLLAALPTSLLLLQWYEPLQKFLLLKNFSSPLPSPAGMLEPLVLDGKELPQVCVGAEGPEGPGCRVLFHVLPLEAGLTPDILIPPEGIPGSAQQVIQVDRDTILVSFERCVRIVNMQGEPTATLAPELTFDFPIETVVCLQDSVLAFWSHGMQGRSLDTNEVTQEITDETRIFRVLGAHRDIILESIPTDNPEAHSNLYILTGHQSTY

[8] = target: Dual specificity mitogen-activated protein kinase kinase 1 (Homo sapiens, UniProt Q02750); experiment: Navigating the Kinome. Panel member name: MAP2K1; assay type: functional
Chain of Dual specificity mitogen-activated protein kinase kinase 1 (Q02750 whole entry): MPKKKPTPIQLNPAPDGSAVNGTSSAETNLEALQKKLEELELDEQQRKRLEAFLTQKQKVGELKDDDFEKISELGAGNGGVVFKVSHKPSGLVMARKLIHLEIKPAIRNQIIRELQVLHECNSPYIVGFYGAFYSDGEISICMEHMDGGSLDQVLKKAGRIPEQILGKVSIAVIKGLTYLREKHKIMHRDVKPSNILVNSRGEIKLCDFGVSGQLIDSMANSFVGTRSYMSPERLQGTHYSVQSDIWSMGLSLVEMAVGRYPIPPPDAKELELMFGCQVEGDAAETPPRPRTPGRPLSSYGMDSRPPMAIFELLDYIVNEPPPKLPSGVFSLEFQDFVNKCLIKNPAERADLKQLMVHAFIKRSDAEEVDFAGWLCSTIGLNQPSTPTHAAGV

[9] = system: A-375; experiment: MITF: Counter assay: A375 proliferation Measured in Cell-Based System Using Plate Reader - 2084-03_Inhibitor_Dose_DryPowder_Activity. [Related pubchem assays (depositor defined):AID488944]; assay type: functional; conditions: Homo sapiens
[10] = target: T2, Microphthalmia-associated transcription factor (Homo sapiens, UniProt O75030); experiment: TRPM1 promoter luciferase signal decrease, dose response, MITF inhibitor project, cell-based, SK-MEL-5, cherry-picked, set 3 (AID 493073); assay type: functional
T2 sequence (O75030 whole entry): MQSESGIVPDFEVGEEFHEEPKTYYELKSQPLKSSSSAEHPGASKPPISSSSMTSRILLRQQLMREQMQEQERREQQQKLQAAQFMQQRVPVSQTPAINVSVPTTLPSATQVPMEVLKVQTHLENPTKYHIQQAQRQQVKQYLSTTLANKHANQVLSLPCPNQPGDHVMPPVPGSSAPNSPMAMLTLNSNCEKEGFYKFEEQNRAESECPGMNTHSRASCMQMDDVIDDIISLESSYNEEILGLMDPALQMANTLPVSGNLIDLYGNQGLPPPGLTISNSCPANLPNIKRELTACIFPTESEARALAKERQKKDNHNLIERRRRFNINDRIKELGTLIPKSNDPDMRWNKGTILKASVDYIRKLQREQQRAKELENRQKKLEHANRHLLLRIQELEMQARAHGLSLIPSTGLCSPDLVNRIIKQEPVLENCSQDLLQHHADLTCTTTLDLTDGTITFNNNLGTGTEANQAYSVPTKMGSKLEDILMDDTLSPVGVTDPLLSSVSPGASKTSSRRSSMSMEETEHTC

[11] = growth suppression of PTEN-null colon cells, dose response, cell-based, HCT116 PTEN knockout (AID 1047); assay type: functional;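 also: HCT116 colon tumor cells with PTEN knocked out; cells exposed to compound for 60 hours before readout; potency for loss of cell viability measured by luminescence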
[12] = growth suppression of beta-catenin-knockout colon cells, dose response, cell-based, HCT116, human colon tumor (AID 1045); assay type: functional;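 also: HCT116 colon tumor cells with beta catenin knocked out; cells exposed to compound for 60 hours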
[13] = target: T3, High affinity choline transporter 1 (Homo sapiens, UniProt Q9GZV3); experiment: CHT inhibitors, dose response, cell-based, 5-point CRC, membrane potential dye (AID 504840); assay type: functional
T3 sequence (Q9GZV3 whole entry): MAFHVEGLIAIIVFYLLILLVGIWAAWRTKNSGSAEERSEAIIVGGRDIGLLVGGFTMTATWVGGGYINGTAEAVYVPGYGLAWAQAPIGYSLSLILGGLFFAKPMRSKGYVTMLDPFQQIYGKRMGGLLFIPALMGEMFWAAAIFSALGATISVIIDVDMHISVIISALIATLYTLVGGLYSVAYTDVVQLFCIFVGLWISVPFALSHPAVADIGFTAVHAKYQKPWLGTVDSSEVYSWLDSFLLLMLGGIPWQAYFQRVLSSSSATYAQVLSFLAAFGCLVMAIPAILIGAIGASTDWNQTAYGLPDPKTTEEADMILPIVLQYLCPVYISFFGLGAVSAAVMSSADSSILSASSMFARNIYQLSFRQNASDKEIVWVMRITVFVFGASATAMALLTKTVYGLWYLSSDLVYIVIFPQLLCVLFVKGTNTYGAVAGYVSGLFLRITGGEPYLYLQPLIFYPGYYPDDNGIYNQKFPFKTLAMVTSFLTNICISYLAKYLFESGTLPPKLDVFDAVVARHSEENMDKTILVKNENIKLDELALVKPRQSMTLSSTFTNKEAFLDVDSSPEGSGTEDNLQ

[14] = target: 72 kDa type IV collagenase (Homo sapiens, UniProt P08253); experiment: Dose Response validation of uHTS RPN11 inhibitor hits using a MMP-2 Fluorescence assay.; assay type: functional
Chain of 72 kDa type IV collagenase (P08253 whole entry): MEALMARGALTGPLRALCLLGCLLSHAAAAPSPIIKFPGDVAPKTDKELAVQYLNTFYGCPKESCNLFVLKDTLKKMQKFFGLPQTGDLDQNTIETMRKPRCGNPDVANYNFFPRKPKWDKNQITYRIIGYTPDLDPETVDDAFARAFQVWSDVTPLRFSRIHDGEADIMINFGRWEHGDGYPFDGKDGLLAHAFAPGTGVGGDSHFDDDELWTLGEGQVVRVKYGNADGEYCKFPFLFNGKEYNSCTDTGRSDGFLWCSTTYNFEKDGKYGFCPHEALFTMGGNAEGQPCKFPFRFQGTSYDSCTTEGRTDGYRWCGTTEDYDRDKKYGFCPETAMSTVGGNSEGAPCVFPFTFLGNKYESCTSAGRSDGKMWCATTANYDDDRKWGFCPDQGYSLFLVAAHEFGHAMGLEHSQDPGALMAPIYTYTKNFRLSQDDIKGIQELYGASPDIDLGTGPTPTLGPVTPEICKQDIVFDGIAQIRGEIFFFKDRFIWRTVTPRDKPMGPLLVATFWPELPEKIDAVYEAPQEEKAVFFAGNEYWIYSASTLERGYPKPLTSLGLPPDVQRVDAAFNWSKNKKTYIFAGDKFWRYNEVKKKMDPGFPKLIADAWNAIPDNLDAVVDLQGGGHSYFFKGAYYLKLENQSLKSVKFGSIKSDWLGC

[15] = target: Prothrombin (Bos taurus, UniProt P00735); experiment: thrombin inhibition, dose response, biochemical, fluorescence polarization, uHTS hits (AID 602369); assay type: functional
[16] = target: 26S proteasome non-ATPase regulatory subunit 14 (Homo sapiens, UniProt O00487); experiment: inhibition of proteasome subunit RPN11 – biochemical, fluorescence polarization, uHTS hits, confirmation (AID 602368); assay type: functional
Chain of 26S proteasome non-ATPase regulatory subunit 14 (O00487 whole entry): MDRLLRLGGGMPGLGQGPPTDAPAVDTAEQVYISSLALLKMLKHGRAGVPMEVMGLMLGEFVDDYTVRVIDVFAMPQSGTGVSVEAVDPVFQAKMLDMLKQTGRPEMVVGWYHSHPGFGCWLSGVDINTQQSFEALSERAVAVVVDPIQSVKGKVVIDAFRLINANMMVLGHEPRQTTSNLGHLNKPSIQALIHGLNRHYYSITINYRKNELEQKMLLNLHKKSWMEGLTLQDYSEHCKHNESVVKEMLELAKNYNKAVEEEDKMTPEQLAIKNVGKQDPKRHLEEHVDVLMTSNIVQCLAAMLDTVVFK

[17] = target: Heat shock protein HSP 90-alpha (Homo sapiens, UniProt P07900); assay type: functional, organism-based
[18] = system: Escherichia coli; experiment: microbe, parasite or virus in culture
[19] = system: Streptococcus; experiment: Group A Streptococcus viability loss, dose response, counter-screen for streptokinase expression inhibitor project, luminescence, BacTiterGlo (AID 1915); assay type: functional, organism-based;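 also: potency for reduction of bacterial viability or growth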
[20] = system: Streptococcus sp. 'group A'; experiment: growth inhibition of control SK(-) GAS strain, dose response, counter-screen for streptokinase expression inhibitor project, luminescence, kanamycin, BacTiterGlo, confirmation (AID 1900); assay type: functional, organism-based
[21] = control 3'UTR Renilla luciferase suppression, dose response, counter-screen for Shn3 inhibitor project, cell-based, Clone20-Shn3RL, cherry-picked (AID 624133); assay type: functional
[22] = nonselective inhibitors of cellular cAMP signaling, dose response, counter-screen for MC4R biased antagonist project, cell-based, TR-FRET cAMP detection (AID 602305); assay type: functional;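 also: U2OS cells stimulated with forskolin near its EC80 as the cAMP inducer; potency is for inhibition of forskolin-stimulated cAMP signaling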
[23] = Shn3 3'UTR reporter inhibitors, dose response, cell-based, Clone20 osteoblasts, firefly luciferase, cherry-picked (AID 624132); assay type: functional;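 also: firefly luciferase luminescence from reporter carrying the Shn3 3'UTR in osteoblasts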
[24] = target: Melanocortin receptor 4 (Homo sapiens, UniProt P32245); experiment: MC4R antagonist potency on cAMP, dose response, cell-based, TR-FRET, biased antagonists (AID 602298); assay type: functional;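 also: antagonist potency against agonist-stimulated cAMP production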
Chain of Melanocortin receptor 4 (P32245 whole entry): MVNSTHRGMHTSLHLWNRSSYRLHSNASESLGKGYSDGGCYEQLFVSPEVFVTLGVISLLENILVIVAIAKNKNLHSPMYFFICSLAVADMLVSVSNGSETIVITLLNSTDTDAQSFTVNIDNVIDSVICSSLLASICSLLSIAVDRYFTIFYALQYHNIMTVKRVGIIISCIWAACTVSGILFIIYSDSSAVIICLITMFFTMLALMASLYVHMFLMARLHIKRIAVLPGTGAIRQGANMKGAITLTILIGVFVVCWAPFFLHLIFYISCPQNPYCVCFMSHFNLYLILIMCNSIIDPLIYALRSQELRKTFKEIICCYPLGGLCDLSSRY

[25] = HepG2 cell cytotoxicity, dose response, cytotoxicity control for Shn3 inhibitor project, CellTiter-Glo, cherry-picked (AID 624134); assay type: functional, cell-based
[26] = target: Dual specificity protein kinase CLK4 (Homo sapiens, UniProt Q9HAZ1); assay type: functional
Chain of Dual specificity protein kinase CLK4 (Q9HAZ1 whole entry): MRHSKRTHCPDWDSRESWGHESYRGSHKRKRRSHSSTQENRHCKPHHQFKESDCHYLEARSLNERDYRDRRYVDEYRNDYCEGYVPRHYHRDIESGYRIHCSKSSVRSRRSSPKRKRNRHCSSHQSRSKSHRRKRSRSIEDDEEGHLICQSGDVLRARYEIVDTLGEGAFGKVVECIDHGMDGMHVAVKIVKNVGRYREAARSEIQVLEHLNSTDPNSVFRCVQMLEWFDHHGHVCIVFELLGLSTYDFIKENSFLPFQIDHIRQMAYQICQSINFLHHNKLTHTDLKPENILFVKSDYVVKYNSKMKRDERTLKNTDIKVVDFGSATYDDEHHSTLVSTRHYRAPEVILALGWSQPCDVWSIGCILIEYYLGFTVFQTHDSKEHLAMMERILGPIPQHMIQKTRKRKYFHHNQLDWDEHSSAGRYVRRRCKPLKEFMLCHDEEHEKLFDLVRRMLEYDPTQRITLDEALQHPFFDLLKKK

[27] = target: Serine/threonine-protein kinase Nek2 (Homo sapiens, UniProt P51955); assay type: functional
[28] = target: LIM domain kinase 1 (Homo sapiens, UniProt P53667); experiment: Navigating the Kinome. Panel member name: LIMK1; assay type: functional
Chain of LIM domain kinase 1 (P53667 whole entry, the tested form may be a part): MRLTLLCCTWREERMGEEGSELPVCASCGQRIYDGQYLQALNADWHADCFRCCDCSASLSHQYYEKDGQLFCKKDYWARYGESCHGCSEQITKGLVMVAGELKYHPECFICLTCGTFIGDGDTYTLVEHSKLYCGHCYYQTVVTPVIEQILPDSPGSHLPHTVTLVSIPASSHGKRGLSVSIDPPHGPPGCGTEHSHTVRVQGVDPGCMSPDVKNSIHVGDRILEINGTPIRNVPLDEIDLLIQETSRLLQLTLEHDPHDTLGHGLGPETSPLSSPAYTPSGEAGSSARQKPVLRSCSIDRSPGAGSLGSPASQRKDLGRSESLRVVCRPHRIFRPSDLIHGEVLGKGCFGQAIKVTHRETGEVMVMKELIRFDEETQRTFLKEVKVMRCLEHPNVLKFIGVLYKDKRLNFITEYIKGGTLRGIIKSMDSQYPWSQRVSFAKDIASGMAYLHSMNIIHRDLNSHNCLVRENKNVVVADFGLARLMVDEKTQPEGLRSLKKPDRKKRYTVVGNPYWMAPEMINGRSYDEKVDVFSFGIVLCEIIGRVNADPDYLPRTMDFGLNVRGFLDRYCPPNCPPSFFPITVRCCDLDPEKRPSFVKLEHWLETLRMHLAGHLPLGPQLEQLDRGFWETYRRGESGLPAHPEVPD

[29] = target: Serine/threonine-protein kinase Chk1 (Homo sapiens, UniProt O14757); assay type: functional;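 also: measured as one member of a kinome-wide kinase profiling panel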
[30] = target: Tyrosine-protein kinase receptor TYRO3 (Homo sapiens, UniProt Q06418); assay type: functional;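 also: TYRO3 value obtained as one member of a kinome-wide profiling panel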
[31] = system: HEK293; experiment: cells; assay type: functional, cell-based; conditions: Homo sapiens
[32] = target: T4, Nuclear receptor subfamily 0 group B member 1 (Homo sapiens, UniProt P51843); experiment: Luminescence-based cell-based high throughput dose response assay for inhibitors of the orphan nuclear receptor subfamily 0, group B, member 1 (DAX1; NR0B1). [Related pubchem assays (depositor defined):AID504766, AID504790]; assay type: functional
T4 sequence (P51843 whole entry): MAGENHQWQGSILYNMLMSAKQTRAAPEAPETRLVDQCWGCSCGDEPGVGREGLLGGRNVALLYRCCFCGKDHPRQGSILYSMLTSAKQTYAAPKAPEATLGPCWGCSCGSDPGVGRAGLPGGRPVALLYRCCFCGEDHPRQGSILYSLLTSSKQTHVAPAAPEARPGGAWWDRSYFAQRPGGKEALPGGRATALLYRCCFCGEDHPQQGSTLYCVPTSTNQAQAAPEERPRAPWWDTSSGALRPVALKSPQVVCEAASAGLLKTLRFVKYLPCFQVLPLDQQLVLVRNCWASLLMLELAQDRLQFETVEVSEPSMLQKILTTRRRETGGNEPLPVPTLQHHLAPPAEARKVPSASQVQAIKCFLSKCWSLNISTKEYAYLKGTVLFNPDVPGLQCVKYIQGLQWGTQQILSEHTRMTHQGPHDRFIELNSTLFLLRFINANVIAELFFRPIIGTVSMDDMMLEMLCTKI

[33] = target: SWI/SNF-related matrix-associated actin-dependent regulator of chromatin subfamily A member 2 (Homo sapiens, UniProt P51531); experiment: Luminescence-based cell-based high throughput dose response assay to identify activators of the function of SWI/SNF related, matrix associated, actin dependent regulator of chromatin, subfamily a, member 2 (SMARCA2, BRM).; assay type: functional
[34] = Counterscreen for activators of the function of SWI/SNF related, matrix associated, actin dependent regulator of chromatin, subfamily a, member 2 (SMARCA2, BRM): Luminescence-based cell-based high throughput dose response assay to identify non-selective compounds using the VP16 reporter assay.; assay type: functional
[35] = target: Aurora kinase A (Homo sapiens, UniProt O14965); assay type: functional;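 also: value from the Navigating the Kinome kinase panel profiling, panel entry STK6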
[36] = target: Aurora kinase B (Homo sapiens, UniProt Q96GD4); assay type: functional

In the case of `Cc1oc2nc(SCCCC(=O)NCCO)nc(N)c2c1C`, the IC50 [1] was 6.46 µM (active).

With `COc1ccc(-c2cnnc(N/N=C/c3ccc(O)c(O)c3)n2)cc1` the AC50 [2] was 0.482 µM (active) and the IC50 [3] was 63.9 µM (active).

With `O=C(c1ccco1)N1CCN(Cc2cc(=O)oc3cc(O)ccc23)CC1` the AC50 [4] was 19.5 µM (active).

With `O=C1CN=C(c2ccc(F)cc2)c2cn[nH]c2N1` the Ki [5] was 79.4 µM (active), the Ki [6] was 100 µM (active) and the Ki [7] was 63.1 µM (active). The Ki [8] was 79.4 µM (active).

With `COc1ccc(C(CCNC(C)c2ccccc2)c2ccc(F)cc2)cc1` (stereo not drawn) the AC50 [9] was 13.8 µM (active), the AC50 [10] was 16.6 µM (active) and the EC50 [11] was 11.2 µM (active). For the same compound, the EC50 [12] was 9.11 µM (active).

In the case of `COC(=O)N/N=C/c1cc(C)n(-c2ccccc2)c1C`, the IC50 [13] was 11.5 µM (active).

For `O=C(NN1C(=O)/C(=C\c2ccc(O)c([N+](=O)[O-])c2)SC1=S)c1ccccc1Cl`, the IC50 [14] was 31.1 µM (active), the IC50 [15] was 62.5 µM (active) and the AC50 [2] was 3.01 µM (active). For the same compound, the IC50 [16] was 26.8 µM (active) and the AC50 [17] was 5.26 µM (active).

With `CC[C@H]1OC(=O)[C@H](C)[C@@H](O[C@H]2C[C@@](C)(OC)[C@@H](O)[C@H](C)O2)[C@H](C)[C@@H](O[C@@H]2O[C@H](C)C[C@H](N(C)C)[C@H]2O)[C@](C)(O)C[C@@H](C)CN(C)[C@H](C)[C@@H](O)[C@]1(C)O` [AZITHROMYCIN] the AC50 [18] was 29.3 µM (active), the EC50 [19] was 0.066 µM (active) and the EC50 [20] was < 0.06 µM (active).

In the case of `CCCCCCCN(c1ccccc1)[C@@H]1C[C@H]2CCCC(=O)N3CC[C@@H](C1)[C@@H]23`, the AC50 [18] was 13.7 µM (active), the AC50 [21] was 4.54 µM (active) and the IC50 [22] was 22.6 µM (inactive). The AC50 [23] was 11.4 µM (active), the IC50 [24] was 7.91 µM (active) and the AC50 [25] was 46.4 µM (active).

With `COc1cc(-c2ccc(=O)n(Cc3cccc(C)c3)n2)cc(OC)c1OC` the Ki [26] was 2 µM (active), the Ki [27] was 3.16 µM (active) and the Ki [28] was 1 µM (active). The Ki [29] was 1 µM (active) and the Ki [30] was 2.51 µM (active).

In the case of `Cc1cc(Cl)ccc1Nc1ncccc1C(N)=O`, the IC50 [31] was > 67.5 µM (inactive) and the IC50 [32] was > 67.5 µM (inactive).

In the case of `O=C(C[S+]([O-])c1ccc(C(F)(F)F)cc1[N+](=O)[O-])Oc1ccc(Cl)cc1` (stereo not drawn), the EC50 [33] was > 91.2 µM (inactive), the IC50 [22] was > 64.6 µM (inactive) and the EC50 [34] was > 91.2 µM (inactive). The IC50 [24] was > 64.6 µM (inactive).

For `COc1cccc(CNC(=O)CCNS(=O)(=O)c2cccc3nsnc23)c1`, the IC50 [31] was > 67.5 µM (inactive) and the IC50 [32] was > 67.5 µM (inactive).

In the case of `Cc1ccc(C(=O)NC2CCCC(C)C2C)cc1S(=O)(=O)N1CCCCC1` (stereo not drawn), the IC50 [13] was 9.55 µM (active).

For `Nc1ccc(-c2csc3ccnc(N)c23)cc1`, the Ki [35] was 1.26 µM (active) and the Ki [36] was 0.2 µM (active).
